Like-named read-outs stand apart in the source and are kept apart here.
Test system: acute lung injury plus hyperthermia, CD-1 mice
Type: in vivo
Conditions: for tolerability: mouse, in vivo
Description: This example provides results of a second modified acute lung injury plus hyperthermia study to evaluate the effect of denatonium acetate. The same procedure was used as in Example 7. Starting three days before the induction of lung injury, groups of six CD-1 mice each were treated prophylactically with vehicle or 92.4 mg/kg denatonium acetate (DA) (administered by twice-daily (BID) oral gavage (PO)) or with 3 mg/kg DA (administered by once-daily (QD) intraperitoneal (IP) injection). On Day 0, lung injury was induced by intratracheal instillation with 50 μL of 1 mg/mL bacterial lipopolysaccharide (LPS), and hyperthermia was induced by placing the animals in a 39° C. incubator. On Day 1 (i.e., 24 hours after induction), animals were euthanized and bronchoalveolar lavage fluid (BALF) was collected. The BALF specimens were assessed for cytokine concentrations (using a multiplex bead-based assay), and protein levels, and neutrophil counts (by fluorescence-activated cell sorting (FACS)). Additionally, lungs were collected, fixed, stained with Masson's trichrome, and assessed histologically. Three days of repeat PO dosing with 92.4 mg/kg DA (BID) or IP dosing with 3 mg/kg DA (QD) was well-tolerated in female CD-1 mice. […] This inference is consistent with the observation that deaths were seen both with vehicle and test article dosing. No other adverse clinical observations were noted during 3 days of test article administration. […] IL-13, MIP-1β, MCSF, and MIG. […] Thus, BID PO treatment with 92.4 mg/kg DA or QD IP injection with 3 mg/kg DA provided significant attenuation of the accumulation of multiple cytokines in the lungs of this mouse model of acute lung injury, along with nominal activity in counteracting neutrophil infiltration and lung damage in these animals.

[1] = IP 3 mg/kg QD, compared to vehicle
[2] = oral 92.4 mg/kg BID, compared to vehicle

## CC(=O)[O-].CC[N+](CC)(CC(=O)Nc1c(C)cccc1C)Cc1ccccc1 [DA, denatonium acetate]
IP 3 mg/kg QD
  BALF neutrophil counts (by FACS assay): nominal decreases
  BALF protein concentrations: nominal (but nonsignificant) changes
  severity of lung pathology (by histological scoring): nominal decreases in the severity
[1]
  BALF concentration of G-CSF: significant decreases
  BALF concentration of IL2: significant decreases
  BALF concentration of IL-3: significant decreases
  BALF concentration of IL-4: significant decreases
  BALF concentration of IL-13: significant decreases
  BALF concentration of IP-10: significant decreases
  BALF concentration of M-CSF: significant decreases
  BALF concentration of MCP-1: significant decreases
  BALF concentration of MIG: significant decreases
  BALF concentration of eotaxin: significant decreases
ip, 3 mg/kg
  tolerability: well-tolerated
po, 92.4 mg/kg
  tolerability: well-tolerated
Oral 92.4 mg/kg BID
  BALF neutrophil counts (by FACS assay): nominal decreases
  BALF protein concentrations: nominal (but nonsignificant) changes
  severity of lung pathology (by histological scoring): nominal decreases in the severity
[2]
  BALF concentration of IL-2: significant decreases
  BALF concentration of IL-3: significant decreases
  BALF concentration of IL-10: significant decreases
  BALF concentration of IL-13: significant decreases
  BALF concentration of MCSF: significant decreases
  BALF concentration of MIG: significant decreases
  BALF concentration of MIP-1β: significant decreases
